This passage reports melting point results from a melting point compilation (Tetko et al.; mined from patent text by program, amines drawn as free bases though some values may be those of a salt).

Structures are written as SMILES.

Regarding `CC(C)OC(=O)Cn1c(=O)n(C)c(=O)n(-c2cc(N=c3sc(=O)n4n3CCCCC4)c(F)cc2Cl)c1=O`, the melting point (in general, the temperature of the solid-liquid transition) lay in the range of 95 to 106 °C.
Then `Nc1ccccc1NC(=O)c1cc2cc(OCCO)ccc2s1`, with 215 to 216 °C; and `FC(F)(F)CSc1nc2cc(Cl)c(Cl)cc2[nH]1`, with 144 to 146 °C; and `N#Cc1ccc(N2CCC(F)C2)c2ccsc12` (configuration not stated), with 151 to 152 °C.
`COC(=O)Cn1c(=O)[nH]c(=O)n(-c2cc(Oc3ccc(C(F)(F)F)c(Cl)c3)ccc2[N+](=O)[O-])c1=O` registered a melting point of 166 to 167 °C.
The figure for `CCOC(=O)C(CCN1CCN(c2ncc(F)cn2)CC1)C(=O)c1ccc(F)cc1` (configuration not stated) is 95 to 96 °C; for `CNC1=NS(=O)N=C1NCCCNc1ncc(Br)cc1C` (configuration not stated) it is 211 to 212 °C.
As for `CCCc1c(C(=O)C(C)C)c2ccc(C(=O)O)cc2n1Cc1ccc(Br)cc1F`, the melting point was 210 to 211 °C.
The figure for `CC(C)C(=O)c1cn(Cc2c(F)cccc2F)c2sc(-c3ccc([N+](=O)[O-])cc3)c(CBr)c2c1=O` is 202 to 204 °C; for `Nc1cnc(-c2cc(Cl)cc(Cl)c2Cl)c(NC(=O)C2CC2)n1` it is 188 to 190 °C; for `Cc1c(NC(=O)c2ccc(-c3ccc(F)cc3)cc2)ccc2cc(C(C)O)cnc12` (configuration not stated) it is 189 to 192 °C.
`Cc1cc2c(c(C(C)(C)C)c1)OCC(/C=C/C=C/C=C/C(=O)O)=C2` showed a melting point of 256 to 258 °C.
Turning to `CCCc1cc(C(O)(CC)CC)ccc1-c1cc(CCc2ccc(CO)c(CO)c2)ccc1C`, the melting point turned out to be 76 °C.
Molecule `CN(CC(N)=O)C1Cc2ccccc2C1` showed a melting point of 122 to 123 °C.
The figure for `Fc1ccc(C=Cc2nc(CNc3ccc(CCCCn4ccnn4)cc3)co2)c(C(F)(F)F)c1` is 109 to 111 °C; for `COc1cc(C(=O)CCl)ccc1O` it is 102 to 103 °C.
`C[C@@H](n1ncn(-c2ccc(-n3cncn3)cc2)c1=O)[C@](O)(Cn1cncn1)c1ccc(F)cc1F` yielded a melting point of 182 to 184 °C.
Then `COc1cc2ncc(OC3CCC(OC)CC3)nc2cc1OC` (configuration not stated), with 85 to 90 °C; and `O=C1CCc2c(Cl)cc(Cl)c(OS(=O)(=O)C(F)(F)F)c21`, with 90 to 96 °C.
Then `CC(Oc1ncn(-c2ccc(C(F)(F)F)cc2)n1)C(=O)N(C)C` (configuration not stated), with 102 to 104 °C.
Then `CN1CCC(OC(c2cccc(SCCNc3c(N)c(=O)c3=O)c2)c2nc3ccccc3[nH]2)CC1` (configuration not stated), with 161 °C; and `Cc1cc(O)c(O)c(O)c1`, with 114 to 121 °C.
`O=S(=O)(NCC(O)(Cn1cncn1)c1ccc(F)cc1F)c1ccc(C(F)(F)F)cc1` (configuration not stated) showed a melting point of 161 to 162 °C.
In the case of `Nc1ccccc1C(=O)C1CCC1`, the melting point is 55 °C.
The figure for `O=C1COc2cc(CN3CCN(c4ccccc4)CC3)ccc2N1` is 191 to 193 °C; for `O=C(C1CCCCCC1)N1c2ccccc2CCC1CN1CCN(c2cccc3[nH]ccc23)CC1` (configuration not stated) it is 167 to 173 °C; for `CCC1=C(c2cccc(F)c2)C(=O)N(c2cccc(C(F)(F)F)c2)C1` it is 77.5 to 79 °C.
The figure for `Cc1ncc(N)cc1Nc1nccc(-c2cccnc2)n1` is 135 °C; for `O=C(O)c1cc(=O)n(Cc2ccccc2S(=O)(=O)O)[nH]1` it is 223 to 226 °C; for `CSC(SC)(SC)C(O)c1ccc(-n2cccc2)cc1` (configuration not stated) it is 101 to 103 °C.
Molecule `C#Cc1ccc(N)nc1` had a melting point of 143 °C.
Regarding `Cc1cc2c(cc1C(F)(F)F)NC(=O)CC(c1cccc(-c3ccnc(CN(C)CC(C)C)c3)c1)=N2`, the melting point was determined as 188 °C.
Then `C#CCn1c(=O)c2cc(Cl)ccc2c2ccc(Cl)cc21`, with 248 to 250 °C.
`CCOc1ccccc1OCC1CN=C(N)O1` (configuration not stated) had a melting point of 130 °C.
The figure for `c1csc(Nc2ccnc3cn[nH]c23)c1` is 255 to 259 °C; for `COc1cc2c(cc1O)CCN(C(=O)c1cc(OC)c(OC)c(OC)c1)C2` it is 172 to 173 °C.
Then `CCOc1cc(C(=CC#N)c2ccc(OC)c(C)c2)ccc1OC`, with 86 to 88 °C; and `COc1ccc(CC(NC(=O)CNC(=O)OCc2ccccc2)C(=O)NC2C(C(=O)O)OC(n3cnc4c(NC(=O)c5ccccc5)ncnc43)C2O)cc1` (configuration not stated), with 78 to 84 °C; and `CCCN(CC(C)n1c(CCOC)nc2c(N)nc3ccccc3c21)C(N)=S` (configuration not stated), with 172 to 173 °C.
The figure for `COC(=O)Nc1ccc(OCCn2ccnc2)cc1` is 152 to 153 °C; for `CC1CC(C)CN(S(=O)(=O)c2cc(Cl)cc(C(=O)O)c2)C1` (configuration not stated) it is 226 to 231 °C.
In the case of `CC(C)CCOc1c(-c2ccc(S(N)(=O)=O)cc2)cnn(-c2cccc(Cl)c2)c1=O`, the melting point is 137 to 139 °C.
`N#CSCCNc1cc(Cl)ccc1[N+](=O)[O-]` registered a melting point of 115 to 116 °C.
In the case of `CC1CC(=O)NN=C1c1ccc(N2CCOCC2)c([N+](=O)[O-])c1` (configuration not stated), the melting point lay in the range of 223 to 225 °C.
The figure for `Nc1c(F)c(N2CCC(=NO)CC2)c(F)c2c1c(=O)c(C(=O)O)cn2C1CC1` is 298 to 300 °C; for `COC1CCC2(C)C(=CC(=O)C3C4CCC(=O)C4(C)CCC32)C1` (configuration not stated) it is 227 to 229 °C; for `CCOC(=O)c1[nH]cc(-c2ccc(F)cc2)c1-c1ccccc1` it is 145 to 146 °C.
For `CC(=O)Nc1nc2c(Oc3cc(N4CCN([C@H](C)c5ccc(F)cc5)CC4)ncn3)cccc2s1`, the melting point fell in the range of 244 to 246 °C.
The figure for `CCCCn1c(=O)c(NC(=O)Nc2c(C(C)C)cc(NCc3cccnc3)cc2C(C)C)c(-c2cccc(OC)c2)c2cccnc21` is 160 to 161 °C; for `CCc1c(N)nc(-c2ccc(Cl)c(OC)c2F)nc1C(=O)OC` it is 144 to 146 °C; for `CCCOc1ccc(C(=O)CBr)cc1-c1nc2c(CCC)nn(C)c2c(=O)[nH]1` it is 136 to 137 °C.
`COc1cc(Cc2cc3cc(Cl)ccc3n2S(=O)(=O)c2ccc(C(C)C)cc2)ccc1C(=O)O`: the melting point was 67 °C.
On to `CCOCCOc1ccc(-c2ccc3c(c2)C=C(C(=O)Nc2ccc(CN(C)C4CCOCC4)cc2)CCS3(=O)=O)cc1C`, for which the melting point lay within 212 to 213 °C.
The figure for `COc1ccc(I)cc1C(=O)O` is 150 to 152 °C.
Then `CP(=O)(CCl)C1CCCCC1` (configuration not stated), with 51 to 53 °C.
Regarding `CCC(C)C[C@@H]1O[C@H](CC(=O)Nc2cccc(OC(F)(F)C(=O)O)c2)C(=O)N(CC(C)(C)CO)c2ccc(Cl)cc21` (some centres not stated), the melting point lay within 119 to 121 °C.
On to `COc1ccc(S)c(C(=O)O)c1`, for which the melting point was 173 to 178 °C.
Then `Cc1ccc(CNC(=O)c2ccnc(NC(=O)c3ccccc3)c2)cc1`, with 135 to 138 °C.
The molecule `O=C1CC2C1CC(O)C2Cl` (configuration not stated) came in with a melting point of 69 to 71 °C.
The figure for `COc1ccc(C(=O)Nc2cc(C)cc(C)c2)cc1NC(=S)Nc1cccc(C)c1` is 188 to 189 °C; for `CC(C)C[C@H](NC(=O)[C@H](NC(=O)OCc1ccccc1)C(C)C)C(=O)O` it is 134 to 136 °C; for `O=C(O)c1cc(O)c2c(c1)C(=O)c1ccc(F)c(O)c1C2=O` it is above 275 °C.
The figure for `CCOc1ccc(-c2nc(CCC(=O)c3ccccc3C(=O)OC)cs2)cc1OCC` is 91.7 to 92.9 °C; for `CC(C)(C)ON=C1CC(c2ccc(S(C)(=O)=O)cc2)=C1c1ccccc1` it is 150 to 152 °C.
Then `Cc1onc(-c2ccccc2)c1C(=O)N(CCN(C)C)c1ccccc1`, with 88 to 89 °C; and `COc1ccc(-c2c(Cl)ncn2-c2ccc(S(C)(=O)=O)cc2)c(F)c1`, with 176 to 198 °C; and `c1ccc(CN2CCC(c3nc(-c4ccc(-c5ccccc5)cc4)c[nH]3)CC2)cc1`, with 110 to 112 °C.
`CS(=O)(=O)c1ccc(-c2cnn(Cc3ccc(F)cc3F)c(=O)c2-c2ccc(F)cc2)cc1`: the melting point lay within 179 to 182 °C.
Then `CCCN1CC(NC(=O)C(C)(C)C)CC2c3cccc4[nH]c(Br)c(c34)CC21` (configuration not stated), with 182 to 183 °C.
Turning to `CCCCCCC(C)(C)c1cc(OCc2ccccc2)c(C2=C(C(C)(C)C(N)=O)CCC(C)C2)c(OCc2ccccc2)c1` (configuration not stated), the melting point lay in the range of 113 to 114 °C.
`CC(=O)SCSCc1cn(C(c2ccccc2)(c2ccccc2)c2ccccc2)nn1` returned a melting point of 106 °C.
The molecule `COC(=O)c1ccc(=O)n(CCNC(=O)c2ccc(C)nc2)c1` showed a melting point of 184 to 185 °C.
In turn, `CC(C)(O)c1cc2cc(OCC(=O)O)c(Cl)c(Cl)c2s1` came in with a melting point of 194 to 196 °C.
Then `CC(Oc1ccc(S(C)(=O)=O)cc1)c1ccnc2ncnn12` (configuration not stated), with 163 to 164 °C; and `COc1ccc(N2CCN(c3c(C)c(C)c4c(c3C)C(O)(c3cccc(C)c3)C(C)(C)O4)CC2)cc1` (configuration not stated), with 122 to 125 °C; and `CC(C)(C)OC(=O)NCCNC(=O)c1ccc([N+](=O)[O-])cn1`, with 141 to 142 °C.
Then `CC(C)(C)c1ccc2c(c1)CCC1=C2CCC(=O)N1`, with 265 to 268 °C.
Take `CCCn1c(=O)n2cnnc2c2c1ncn2C`: the melting point is 218 °C.
Then `CC1(C)OC(=O)Nc2c(Br)cc(-c3cc(F)cc(C#N)c3)cc21`, with 216 to 217 °C.
`O=C1C=CC(=Nc2ccccc2C(=O)N2CCCCC2)C=C1` had a melting point of 74 to 76 °C.
With `COc1cc(Nc2nccc(-c3ccc(N4CCC(O)CC4)nc3)n2)cc(OC)c1OC`, the melting point fell in the range of 127 to 128 °C.
The figure for `Cc1ccc2nc(C)c(=O)n(-c3ccc(Cl)cc3)c2c1` is 144 to 145 °C; for `COc1ccc2cc([C@H](C)C(=O)OCC(CO)(CO)[N+](=O)[O-])ccc2c1` it is 124 to 126 °C.
The figure for `CCN(CC)Cc1cccc(OCCCNc2nc(N)nn2C)c1` is 68 to 69 °C; for `Cc1cc(C)cc(S(=O)(=O)c2c(C(C)C)nc(C)n2C)c1` it is 126 to 128 °C; for `O=C(Nc1ccc(C(=O)N2CCc3cn[nH]c3-c3sccc32)cc1)c1ccccc1-c1ccccc1` it is 280 to 284 °C.
Then `CCOn1c(C)nc(N2CCc3ccccc3CC2)c(C#N)c1=O`, with 149 to 152 °C.
